One data set relates to MDR2−/− mice. The experiment in a line: MDR2−/− mouse model of sclerosing cholangitis. It is filed as in vivo. As for the experimental part: Methods: 30-day-old female MDR2−/− mice (FVB background) were treated daily for 14 days by orogastric gavage with either vehicle control (Kolliphor and CMC), 100 mg/kg/day bezafibrate (pan-PPAR agonist), 100 mg/kg/day fenofibrate (PPARα agonist), 10 mg/kg seladelpar (PPARδ agonist), 0.008% SC-435 (non-absorbable IBAT inhibitor) admixed to chow, or a combination of SC-435 and PPAR agonists.

The next data set is described as follows: physchem. The conditions noted are these: water. The source says:
Since pediatric patients are the target patient population for the proposed cholestatic disease, an oral solution formulation was selected due to its flexibility for dose adjustment based on patient's body weight and the preference for this type of formulation in young children.

Data set [1] can be described thus: Solubility of MRX drug substance in water and commercially available vehicles, visual observation. It is filed as physicochemical. The settings on record: Water; 0.02 mg/mL. As to the method:
For early pediatric clinical studies, the desired maralixibat solution concentration was in the range of 0.02 to 20 mg/mL (concentration based on maralixibat chloride). Initial formulation studies were conducted to determine the solubility and stability of MRX drug substance in three liquid oral dosing vehicles: water, Pedialyte® (an oral rehydration preparation), and Ora-Sweet® SF (a sugar-free, alcohol-free syrup vehicle for oral preparations). Using these three vehicles, samples were produced with the MRX drug substance at three different concentrations (0.02 mg/mL, 2.0 mg/mL, and 4.0 mg/mL concentrations based on maralixibat chloride). A vortex mixer was used to disperse the drug within the liquid vehicle; drug dissolution status was then visually checked and recorded as in Table 4.

Data set [2] is described as follows: Maralixibat clinical studies in ALGS (LUM001-304, LUM001-303, LUM001-305): pruritus and concomitant antipruritic medication. It is filed as in vivo, human. From the text: In Study LUM001-304, participants were not allowed to make any changes to their antipruritic therapy up to Week 22. In Studies LUM001-301 and LUM001-302, no changes to the antipruritic comedications were allowed throughout the period of the primary analysis up to Week 13. Therefore, across all studies, participants had to be on stable antipruritic medication doses (except for weight-based dose adjustments) throughout the randomized controlled periods. […] Participants in LUM001-302 received either 140 μg/kg/day or 280 μg/kg/day of maralixibat (as maralixibat chloride). The long-term LUM001-303 dosing was 280 μg/kg QD and 280 μg/kg BID. The long term LUM001-305 dosing was at 280 μg/kg/day. After these stable-dosing periods in the long-term extension studies, changes in antipruritic medications were allowed. Weight-based dose adjustments in antipruritic medications were anticipated over the course of a 5-year study.

Data set [3] in a line: Maralixibat open label study in PFIC (LUM001-501): pruritus and concomitant antipruritic medication. The data set is classed as in vivo, human. From the text:
In an open label study to evaluate efficacy and long term safety of maralixibat (LUM001) in the treatment of Cholestatic Liver Disease in patients with Progressive Familial Intrahepatic Cholestasis (PFIC) (Study LUM001-501), participants were not allowed to make any changes to their antipruritic therapy during the 13-week treatment period. No new medications used to treat pruritus were to be added during the 13-week treatment period. Therefore, participants had to be on stable antipruritic medication doses (except for weight-based dose adjustments) during the 13-week treatment period. In the long-term exposure period, changes in antipruritic medications were allowed.

[4] abbreviates: female MDR2−/− mice, daily for 14 days.
The mark [5] stands for this setting: Study LUM001-303, long-term extension, of the 19 participants.
Where [6] appears, read: Study LUM001-305, long term extension, of the 34 participants.

Where only a bound is given, the exact number is not on record here.

As for `CCCCC1(CCCC)CS(=O)(=O)c2ccc(N(C)C)cc2[C@@H](c2ccc(OCc3ccc(C[N+]45CCN(CC4)CC5)cc3)cc2)[C@H]1O.[Cl-]` [SC-435], the “serum ALP” value with MDR2−/− mice (female MDR2−/− mice (FVB background), daily for 14 days) is listed as “increased”. In addition, in the data set on MDR2−/− mice (setting [4]), the “liver to body weight ratio” value is on record as “attenuated”, the “retention of BA in the liver” value is given as “significantly reduced”, the “serum BA concentrations” value is on record as “decreased” and the “serum TB concentrations” value was “reduced”. Besides, in the data set on MDR2−/− mice (mouse model of SC), the “potency in reducing serum total BA and TB levels” value was “more potent than PPAR agonists”.
With `CCCCC1(CCCC)CS(=O)(=O)c2ccc(N(C)C)cc2[C@@H](c2ccc(OCc3ccc(C[N+]45CCN(CC4)CC5)cc3)cc2)[C@H]1O` [maralixibat chloride], the solubility in “physchem” was over 100 mg/mL. Besides, the “Solubility Observations” value in data set [1] was “Dissolved Instantly”. Moreover, the pruritus scores entry in data set [2] (ALGS studies, long-term follow-up) was “consistently improved”. Moreover, in data set [2] (setting [5]), the “participants who experienced a decrease in concomitant antipruritic medication” value (“participants who experienced a decrease” for short) is 2 participants, the “participants who experienced an increase in concomitant antipruritic medication” value is reported as “Five” and the “participants with no or minimal change in concomitant antipruritic medication” value came out at 12 participants. Moreover, the “pruritus reduction and proportion of participants reducing concomitant antipruritic medication” value in data set [2] (Study LUM001-304, 400 μg/kg dose, compared with supporting ALGS studies at lower doses) is “greatest pruritus reduction and the largest proportion of participants reducing concomitant antipruritic medication”. The “participants who experienced a decrease” value in data set [2] (Study LUM001-304, after Week 22, long-term extension, of the 29 participants) is 10 participants. Besides, in data set [2] (setting [6]), the “participants who experienced a decrease” value stood at 10 participants, the “participants who experienced an increase in concomitant antipruritic medication” value was “Seven” and the “participants with no or minimal change in concomitant antipruritic medication” value turned out to be 17 participants. For the same compound, the “pruritus control after discontinuing one or more antipruritic medications” value in data set [3] (5 exemplary PFIC patients, FIGS. 3A-3E) was “still maintain control of pruritus”. For the same compound, in data set [3] (Study LUM001-501, N=33), the “participants with a decrease in dose or discontinuation of antipruritic medications” value was determined as 13 participants and the “participants with an increase in dose of antipruritic medication” value is 5 participants. Also, the “pruritus, ItchRO(Obs) scores” value in data set [3] (Study LUM001-501, sustained period of follow-up) is “general improvements in pruritus”.

As usually defined, the solubility is the concentration that dissolves in the medium under given conditions.

For the origin of these results see patent US20230181527A1, “APICAL SODIUM-DEPENDENT TRANSPORTER INHIBITOR COMPOSITIONS” (Mirum Pharmaceuticals, Inc., priority 2021, published 2023).
